Measured values reported in article PMC8465764 (Organic letters, 2021).

Tests used:
S. aureus FabH = target: T1, S. aureus FabH (Staphylococcus aureus, UniProt Q8NXE2); assay: FabH radiochemical assay, […]-ketoacyl-ACP formed; assay type: biochemical
T1 sequence (Q8NXE2 1-313): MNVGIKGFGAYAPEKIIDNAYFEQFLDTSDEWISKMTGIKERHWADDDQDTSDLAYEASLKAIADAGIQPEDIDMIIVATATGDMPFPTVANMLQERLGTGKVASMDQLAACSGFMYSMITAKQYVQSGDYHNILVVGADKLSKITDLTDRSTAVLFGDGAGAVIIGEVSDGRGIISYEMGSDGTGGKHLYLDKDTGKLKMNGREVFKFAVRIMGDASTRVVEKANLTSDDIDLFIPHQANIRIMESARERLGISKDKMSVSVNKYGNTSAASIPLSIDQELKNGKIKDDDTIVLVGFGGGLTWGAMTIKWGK

B. subtilis FabH = assay: as above; assay type: biochemical, Bacillus subtilis

`C=C(C(=O)O)[C@@H]1O[C@H]1CCCCC=C(C)CCC[C@H](O)CC` [compound 2, conocandin B] gave an IC50 (S. aureus FabH) of 18.8 ± 2.5 µM and an IC50 (B. subtilis FabH) of 53.5 ± 10.4 µM.
